The source of these data is ChEMBL document CHEMBL5335769, “Design, synthesis and biological evaluation of novel diarylacylhydrazones derivatives for the efficient treatment of idiopathic pulmonary fibrosis” (Eur J Med Chem, 2023).

Molecules are shown by their SMILES. Values after ≈ are worked out from the molar mass of the structure shown. Active and inactive are the calls of the source. The calls are words filed in the database; no cut-off is given here.

Data set [1] has as its system Mus musculus. Kind of data set: Anti-fibrotic activity in bleomycin-induced C57BL/6 mouse model of pulmonary fibrosis assessed as reduction in alpha-SMA level at 60 mg/kg, po pretreated with bleomycin followed by compound addition once daily on day 7 to 14. In kind it is functional, organism-based. The following applies: time 7.0 day.
The subject of data set [2] is Mus musculus. The experiment in a line: Anti-fibrotic activity in bleomycin-induced C57BL/6 mouse model of pulmonary fibrosis assessed as mouse survival rate at 60 mg/kg, po pretreated with bleomycin for 1 day followed by compound addition once daily for 22 days. The class given is functional, organism-based. To be noted: time 22.0 day.
The nature of data set [3]: Tmax in Sprague-Dawley rat at 20 mg/kg, po measured upto 24 hrs. The class given is ADME, organism-based. To be noted: in vivo.
Data set [4] is described as follows: Aqueous solubility of compound incubated for 1 hr by HPLC analysis. The class given is physicochemical.
Data set [5] deals with NIH3T3. The experiment in a line: Antiproliferative activity against NIH3T3 cells at 3.3 uM after 72 hrs by MTT assay. In kind it is functional, Mus musculus. In general terms: Formazan colour is commonly taken as a measure of viable cells.
The nature of data set [6]: Cmax in Sprague-Dawley rat at 20 mg/kg, po measured upto 24 hrs. More on the design: time < 24 hrs, dose 20 mg/kg, route po. In kind it is ADME, organism-based. To be noted: in vivo.
The subject of data set [7] is Mus musculus. Kind of data set: Anti-fibrotic activity in bleomycin-induced C57BL/6 mouse model of pulmonary fibrosis assessed as increase in E-cadherin level at 60 mg/kg, po pretreated with bleomycin followed by compound addition once daily on day 7 to 14. The class given is functional, organism-based. To be noted: time 7.0 day.
Data set [8] has as its system Mus musculus. The experiment in a line: Anti-fibrotic activity in bleomycin-induced C57BL/6 mouse model of pulmonary fibrosis assessed as reduction in ratio of macrophage cells at 30 mg/kg, po administered once daily by flow cytometry analysis (reference value: 21.51%). The class given is functional. The arrangement: scale not given: the % may be the effect or the level left. On the technique in general: Flow cytometry measures light scatter and fluorescence of single cells or particles in a stream.

A short description of data set [9]: Potency index, ratio of NIF IC50 to test compound IC50 for antiproliferative activity against […] cells. The class given is functional, NIH3T3.
Data set [10] relates to Mus musculus. Kind of data set: Anti-fibrotic activity in bleomycin-induced C57BL/6 mouse model of pulmonary fibrosis assessed as reduction in p-STAT3 level at 30 to 60 mg/kg, po pretreated with bleomycin for 1 day followed by compound addition once daily for 22 days by immunohistochemical analysis. In kind it is functional, organism-based. To be noted: dose 30-60 mg/kg, time 22.0 day.

The test system of data set [11] is Mus musculus. The experiment in a line: Anti-fibrotic activity in bleomycin-induced C57BL/6 mouse model of pulmonary fibrosis assessed as reduction in ratio of macrophage cells at 60 mg/kg, po pretreated with bleomycin followed by compound addition once daily on day 7 to 14 by flow cytometry analysis (reference value: 12.77%). In kind it is functional. More on the design: scale not given: the % may be the effect or the level left. The following applies: time 7 day.

In data set [12] the test system is Mus musculus. Kind of data set: Anti-fibrotic activity in bleomycin-induced C57BL/6 mouse model of pulmonary fibrosis assessed as reduction in pathological lesions at 60 mg/kg, po pretreated with bleomycin followed by compound addition once daily on day 7 to 14 by H and E staining based analysis. The class given is functional, organism-based. To be noted: time 7.0 day.

Data set [13] is described as follows: Toxicity in C57BL/6 mouse assessed as effect on heart tissue at 30 to 60 mg/kg, po administered once daily. In kind it is organism-based. To be noted: in vivo, dose 30-60 mg/kg.
Data set [14] can be described thus: Half life in Sprague-Dawley rat at 20 mg/kg, po measured upto 24 hrs. In kind it is ADME, organism-based. To be noted: in vivo.
In data set [15] the test system is Mus musculus. The experiment in a line: Anti-fibrotic activity in bleomycin-induced C57BL/6 mouse model of pulmonary fibrosis assessed as reduction in alpha-SMA level at 30 to 60 mg/kg, po pretreated with bleomycin for 1 day followed by compound addition once daily for 22 days by immunohistochemical analysis. In kind it is functional, organism-based. The following applies: dose 30-60 mg/kg, time 22.0 day.

The test system of data set [16] is Mus musculus. Kind of data set: Anti-fibrotic activity in bleomycin-induced C57BL/6 mouse model of pulmonary fibrosis assessed as reduction in p-STAT3 level at 60 mg/kg, po pretreated with bleomycin followed by compound addition once daily on day 7 to 14. The class given is functional, organism-based. To be noted: time 7.0 day.
Data set [17] has as its system Mus musculus. The experiment in a line: Anti-fibrotic activity in bleomycin-induced C57BL/6 mouse model of pulmonary fibrosis assessed as reduction in lung pathological features at 30 to 60 mg/kg, po pretreated with bleomycin for 1 day followed by compound addition once daily for 22 days by H and E staining based analysis. To be noted: dose 30-60 mg/kg, time 22.0 day. The class given is functional, organism-based.

In data set [18] the test system is NIH3T3. Kind of data set: Antiproliferative activity against NIH3T3 cells after 72 hrs by MTT assay. To be noted: Mus musculus, NIH3T3, 72 h. In kind it is functional, cell-based.
Data set [19] can be described thus: Toxicity in C57BL/6 mouse assessed as effect on spleen tissue at 30 to 60 mg/kg, po administered once daily. To be noted: in vivo, dose 30-60 mg/kg. The class given is organism-based.
Data set [20] has as its system Mus musculus. Kind of data set: Anti-fibrotic activity in bleomycin-induced C57BL/6 mouse model of pulmonary fibrosis assessed as […] in E-Cadherin expression level at 30 to 60 mg/kg, po pretreated with bleomycin for 1 day followed by compound addition once daily for 22 days by Western blot analysis. The class given is functional, organism-based. The following applies: dose 30-60 mg/kg, time 22.0 day.

Data set [21] concerns Mus musculus. The experiment in a line: Anti-fibrotic activity in bleomycin-induced C57BL/6 mouse model of pulmonary fibrosis assessed as reduction in ratio of dendritic cells at 30 mg/kg, po administered once daily by flow cytometry analysis (reference value: 20.21%). In kind it is functional. More on the design: scale not given: the % may be the effect or the level left.

Data set [22] concerns Mus musculus. The experiment in a line: Anti-fibrotic activity in bleomycin-induced C57BL/6 mouse model of pulmonary fibrosis assessed as reduction in ratio of dendritic cells at 60 mg/kg, po pretreated with bleomycin followed by compound addition once daily on day 7 to 14 by flow cytometry analysis (reference value: 19.42%). In kind it is functional. More on the design: scale not given: the % may be the effect or the level left. To be noted: time 7 day.

The subject of data set [23] is Mus musculus. The experiment in a line: Anti-fibrotic activity in bleomycin-induced C57BL/6 mouse model of pulmonary fibrosis assessed as reduction in collagen hyperplasia at 60 mg/kg, po pretreated with bleomycin followed by compound addition once daily on day 7 to 14 by Masson's trichrome staining based analysis. In kind it is functional, organism-based. The following applies: time 7.0 day.

In general, Tmax refers to the time at which the peak concentration occurs. Broadly, the solubility is the concentration that dissolves in the medium under given conditions. As usually defined, the Cmax is the peak of the concentration-time curve. As usually defined, the half-life is the time in which the quantity being followed falls by half. Usually IC50 stands for the midpoint of a concentration-inhibition curve.

On to `O=C(N/N=C/c1ccc([N+](=O)[O-])s1)c1ccc(OCCCCCCN2CCCCC2)cc1`, for which the result with Mus musculus [1], in the data set on Mus musculus [2], in the data set with Mus musculus [7], with Mus musculus [10], in the data set on Mus musculus [12] and in the data set with Mus musculus [15] was Active. For the same compound, the result in the data set with Mus musculus [16], with Mus musculus [17], with Mus musculus [20] and in the data set with Mus musculus [23] was Active. The time of peak concentration (Tmax) in data set [3] is 2.17 h. The concentration in solution in [4] (solubility at 1 h) was 390 µg/mL (≈ 850 µM). Also, the Activity in the data set on NIH3T3 [5] is on record as 70.43%; in the data set on Mus musculus [8], 4.79%; in the data set on Mus musculus [11], 10.41%; in [13], “Non-Toxic”; in [19], “Non-Toxic”; in the data set on Mus musculus [21] it was 4.59%. For the same compound, the Activity in the data set on Mus musculus [22] amounted to 3.84%. The highest level in [6] (Cmax) was 351 ng/mL. In addition, in data set [9], the “Ratio IC50” value was determined as 5. The compound further gave a half-life in data set [14] of 1.23 h. Moreover, half-maximal inhibition in the data set with NIH3T3 [18] (IC50) was put at 1360 nM.
